Biological target: T1, human DNA polymerase γ (Homo sapiens, UniProt P54098)
T1 construct: purchased Abcam 196066
T1 sequence (P54098 1-1239): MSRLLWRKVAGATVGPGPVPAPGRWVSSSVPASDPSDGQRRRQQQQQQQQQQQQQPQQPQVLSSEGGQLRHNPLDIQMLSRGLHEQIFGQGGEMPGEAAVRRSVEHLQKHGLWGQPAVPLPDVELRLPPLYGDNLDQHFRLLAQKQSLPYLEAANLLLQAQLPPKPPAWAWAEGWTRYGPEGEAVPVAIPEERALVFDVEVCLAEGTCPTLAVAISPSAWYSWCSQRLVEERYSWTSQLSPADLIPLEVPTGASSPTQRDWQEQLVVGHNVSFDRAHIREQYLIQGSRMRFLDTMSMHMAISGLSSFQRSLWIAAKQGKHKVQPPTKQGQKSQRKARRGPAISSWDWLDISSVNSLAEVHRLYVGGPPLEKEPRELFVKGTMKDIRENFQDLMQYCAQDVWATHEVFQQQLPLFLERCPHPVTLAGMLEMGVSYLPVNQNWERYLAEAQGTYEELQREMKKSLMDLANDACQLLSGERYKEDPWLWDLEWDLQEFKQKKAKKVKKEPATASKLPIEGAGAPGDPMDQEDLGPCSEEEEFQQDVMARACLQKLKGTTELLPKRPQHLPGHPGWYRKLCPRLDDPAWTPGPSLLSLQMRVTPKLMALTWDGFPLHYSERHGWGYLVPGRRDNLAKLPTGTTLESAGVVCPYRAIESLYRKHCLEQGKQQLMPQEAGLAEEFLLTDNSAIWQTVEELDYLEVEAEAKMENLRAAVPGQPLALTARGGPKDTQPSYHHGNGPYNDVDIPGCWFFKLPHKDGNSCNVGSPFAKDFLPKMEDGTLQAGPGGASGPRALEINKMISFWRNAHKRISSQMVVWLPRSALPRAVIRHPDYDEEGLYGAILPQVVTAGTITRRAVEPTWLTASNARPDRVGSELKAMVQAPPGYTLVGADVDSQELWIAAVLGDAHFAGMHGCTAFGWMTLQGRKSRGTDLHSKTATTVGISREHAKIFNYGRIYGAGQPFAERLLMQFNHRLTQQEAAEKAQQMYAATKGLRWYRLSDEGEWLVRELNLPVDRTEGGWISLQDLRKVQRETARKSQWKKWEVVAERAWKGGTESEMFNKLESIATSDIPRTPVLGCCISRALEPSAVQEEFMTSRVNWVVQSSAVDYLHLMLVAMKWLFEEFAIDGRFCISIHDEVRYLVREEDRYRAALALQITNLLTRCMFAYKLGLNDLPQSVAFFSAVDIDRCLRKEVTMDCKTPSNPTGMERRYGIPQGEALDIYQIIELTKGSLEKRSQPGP
Test: Human DNA polymerase γ DdDp assay
Type: biochemical
Experimental: The DNA-dependent DNA polymerization (DdDp) activity of human DNA polymerases α, β, and γ was measured as described previously. Briefly, the assays were run with 5 U/mL recombinant DNA polymerase α (CHIMERx, cat#1075-1), 0.5 U/mL recombinant DNA polymerase β (CHIMERx, cat#1077-1), or 0.1 μg/mL recombinant DNA polymerase γ (Abcam, cat#196066), 62 μg/mL activated calf thymus DNA, 50 mM Tris-HCl (pH 8.0), 60 mM KCl, 5 mM MgCl2, 4 mM dithiothreitol (DTT), 0.1 mg/mL BSA, 2 μM dCTP, 2 μM dATP, 2 μM dGTP, 0.05 μCi/μL ^3H-dTTP (Perkin Elmer) and compounds at various concentrations at 30 °C for 2 h. The 50 μL reactions were processed following the same filter plate method as described above for HIV-1 RT. Acid-precipitated tritiated DNA products retained on the filters were detected by a Trilux MicroBeta scintillation reader (Perkin Elmer). All data were analyzed as described above for HIV-1 RT.

## Nc1ncnc2c1ncn2[C@@H]1OC[C@](F)(COP(=O)(O)OP(=O)(O)OP(=O)(O)O)[C@H]1CO [Compound 38, ((3S,4S,5R)-5-(6-Amino-9H-purin-9-yl)-3-fluoro-4-(hydroxymethyl)tetrahydrofuran-3-yl)methyl triphosphate]
  IC50: > 100 µM

Reference: publication PMC9025269, “Synthesis and Anti-Hepatitis B Activities of 3′-Fluoro-2′-Substituted Apionucleosides” (Molecules, 2022)
